Among the test systems are A498; SF-295; MOLT-4; K562; SN12C; SR; SF-539; SK-OV-3; HCT-15; NCI-H460; NCI/ADR-RES; KM12; CCRF-CEM; NCI-H23; RXF 393; 786-0; TK-10; HOP-92; OVCAR-8.
Experiment in all cases: NCI tumour cell line growth inhibition, 48 h

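Tested at 5 concentrations; 48 h exposure; 96-well plates; endpoints linearly interpolated, else capped at highest concentration. GI50 marks 50% less growth.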 Calls of active or inactive are those of the source. Cut-off read from the data, not from the text of the source: active = GI50 up to about 1.1 µM and inactive = higher.

On to `Cc1cc(C)cc(Nc2nnc3n2S(=O)(=O)c2cc(C#N)c(Cl)cc2S3)c1`, for which the GI50 is 16.3 µM (inactive) in the test on A498; 2.84 µM (inactive) in the test on SF-295; 1.11 µM (active) in the test with MOLT-4; 1.47 µM (inactive) in the test on K562; 2.59 µM (inactive) in the test with SN12C; 0.507 µM (active) with SR. Also, the GI50 is 1.89 µM (inactive) with SF-539; 6.56 µM (inactive) in the test with SK-OV-3; 2.52 µM with HCT-15; 3.14 µM (inactive) in the test on NCI-H460; 2.44 µM (inactive) with NCI/ADR-RES; 1.89 µM (inactive) in the test with KM12. Moreover, the GI50 in the test with CCRF-CEM is 1.07 µM (active); with NCI-H23 it was 1.77 µM (inactive); in the test on RXF 393, 1.59 µM (inactive); with 786-0 it was 2.22 µM (inactive).
`C/C(=N\NS(=O)(=O)c1ccc(C)cc1)c1ccccn1`: the GI50 was 24.3 µM (inactive) with A498; 43.3 µM (inactive) in the test on SF-295; 21.2 µM (inactive) in the test with MOLT-4; 83.8 µM (inactive) with K562; 65 µM (inactive) in the test on SR; 70.6 µM (inactive) with TK-10. Moreover, the GI50 was > 100 µM (inactive) with HOP-92; 40.8 µM (inactive) with SF-539; 50.8 µM (inactive) in the test on OVCAR-8; 55.3 µM (inactive) with SK-OV-3; 38.5 µM with HCT-15; 49.7 µM (inactive) in the test with NCI-H460. The GI50 with NCI/ADR-RES was 38 µM (inactive); in the test on KM12, 43.7 µM (inactive); in the test on CCRF-CEM it was 18.5 µM (inactive); in the test on NCI-H23, 54.1 µM (inactive); with RXF 393 it was > 100 µM (inactive); in the test with 786-0, 45.3 µM (inactive).
Turning to `Nc1ccccc1-c1noc(=O)[nH]1`, the GI50 in the test on A498, in the test on SF-295, in the test with MOLT-4, in the test with K562, in the test with SN12C and in the test with SR was > 100 µM (inactive) throughout. Besides, the GI50 in the test with TK-10 was > 100 µM (inactive); with HOP-92, > 100 µM (inactive); in the test on SF-539, > 100 µM (inactive); in the test on OVCAR-8 it was > 100 µM (inactive); in the test with SK-OV-3 it was > 100 µM (inactive); with HCT-15, greater than 100 µM. In addition, the GI50 in the test on NCI/ADR-RES, with KM12, in the test on CCRF-CEM, in the test on NCI-H23, in the test with RXF 393 and with 786-0 was > 100 µM (inactive) each time.
Regarding `Nc1nc(Cl)cc(NCC2(CO)CC(=O)C2)n1`, the GI50 in the test with SF-295, with MOLT-4, with K562, in the test on SN12C, in the test on SR and in the test on TK-10 was > 100 µM (inactive) each time. For the same compound, the GI50 in the test on HOP-92 is > 100 µM (inactive); in the test on SF-539, > 100 µM (inactive); with OVCAR-8, 65.3 µM (inactive); with SK-OV-3, > 100 µM (inactive); in the test with HCT-15, greater than 100 µM; with NCI-H460, > 100 µM (inactive). The GI50 with NCI/ADR-RES, in the test with KM12, in the test with CCRF-CEM, with NCI-H23, with RXF 393 and with 786-0 was > 100 µM (inactive) throughout.
Take `Nc1ccc2c(c1)NCCN2`: the GI50 is 64.1 µM (inactive) with SF-295; 2.75 µM (inactive) in the test on MOLT-4; 18.3 µM (inactive) in the test with K562; 48.8 µM (inactive) in the test with SN12C; 1.69 µM (inactive) in the test with SR; 55.7 µM (inactive) with TK-10. For the same compound, the GI50 in the test with HOP-92 is > 100 µM (inactive); with SF-539 it was 14.7 µM (inactive); in the test with OVCAR-8, 50.9 µM (inactive); in the test with HCT-15, 61.9 µM; with NCI-H460, 4.39 µM (inactive); with NCI/ADR-RES, > 100 µM (inactive). Moreover, the GI50 in the test with KM12 was > 100 µM (inactive); in the test on NCI-H23, 78.9 µM (inactive); in the test on RXF 393 it was > 100 µM (inactive); in the test on 786-0, > 100 µM (inactive).

The values above are taken from ChEMBL document CHEMBL1201862, “PubChem BioAssay data set” (2004).
